One data set concerns the target HDAC-1 (Homo sapiens, UniProt Q13547). Put plainly: Enzymatic HDAC inhibition assay (fluorescence), HDAC-1. The format is biochemical. Conditions: compound at 10 µM. As for the experimental part: (§1) Enzymatic assays to evaluate HDAC inhibition were performed, and the design involved three steps: (a) Preliminary screening to identify the most promising compounds; (b) Evaluation by a panel of HDAC isoforms to investigate selectivity; and (c) Determination of IC50 values. Firstly, compounds (4–7; 15–26) were evaluated at 10 µM against HDAC-1 and HDAC-2 (Table 2).
(§2) The enzymatic assay to evaluate HDAC inhibitory effects for all final compounds against the distinct isoforms was carried out in accordance with the previously described procedures (Lopes et al., 2021). All compounds were initially screened at 10 µM against HDAC-1 and HDAC-2. […] All the compounds were dissolved in DMSO. A serial dilution of the compounds was performed in 100% DMSO with the highest concentration at 1 mM. Each intermediate compound dilution (in 100% DMSO) was diluted 10x in assay buffer to form a 10% DMSO intermediate dilution in HDAC assay buffer. 5 µL of this dilution was added to a 50 µL reaction to bring the final concentration of DMSO to 1% in all the reactions. Three independent experiments were carried out in triplicate for all experiments. The fluorescence intensity was measured at an excitation of 360 nm and emission of 460 nm using a Tecan Infinite M1000 microplate reader, and the percentage of activity was calculated using the formula: % activity = (F − Fb)/(Ft − Fb), where F = the intensity of fluorescence in the presence of the compound. In the absence of the test compound, the fluorescent intensity (Ft) in each dataset was defined as 100% activity, while in the absence of HDAC, the fluorescent intensity (Fb) in each dataset was set to 0% activity.

A further data set concerns the target HDAC-2 (Homo sapiens, UniProt Q92769). Put plainly: Enzymatic HDAC inhibition assay (fluorescence), HDAC-2. The data set is classed as biochemical. The settings on record: compound at 10 µM. As for the experimental part:
as §1, §2

In the next data set the test system is HDAC isoforms. More on the design: method as in PMID 24023672. The settings on record: RVT 100 µM, nuclear extract of HeLa cells; cited from earlier work.
For the next data set, the system named is SIRT1. Further details: method as in PMID 30526767. The settings on record: dose-dependent experiments; cited from earlier work.

HDAC-1, sequence (Q13547 whole entry, canonical isoform): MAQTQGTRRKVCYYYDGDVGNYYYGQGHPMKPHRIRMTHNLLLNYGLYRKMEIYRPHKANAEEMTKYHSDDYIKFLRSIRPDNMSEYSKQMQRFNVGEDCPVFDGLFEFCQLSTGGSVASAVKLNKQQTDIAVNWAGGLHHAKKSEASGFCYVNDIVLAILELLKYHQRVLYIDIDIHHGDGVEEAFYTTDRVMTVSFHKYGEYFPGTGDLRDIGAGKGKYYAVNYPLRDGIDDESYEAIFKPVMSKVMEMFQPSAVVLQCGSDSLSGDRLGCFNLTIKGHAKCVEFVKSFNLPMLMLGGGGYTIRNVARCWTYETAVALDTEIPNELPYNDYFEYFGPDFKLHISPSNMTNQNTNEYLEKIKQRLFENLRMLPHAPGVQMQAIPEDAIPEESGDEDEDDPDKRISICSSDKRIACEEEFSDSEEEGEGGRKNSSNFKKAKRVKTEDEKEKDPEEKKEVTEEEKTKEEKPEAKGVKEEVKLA
HDAC-2, sequence (Q92769 whole entry): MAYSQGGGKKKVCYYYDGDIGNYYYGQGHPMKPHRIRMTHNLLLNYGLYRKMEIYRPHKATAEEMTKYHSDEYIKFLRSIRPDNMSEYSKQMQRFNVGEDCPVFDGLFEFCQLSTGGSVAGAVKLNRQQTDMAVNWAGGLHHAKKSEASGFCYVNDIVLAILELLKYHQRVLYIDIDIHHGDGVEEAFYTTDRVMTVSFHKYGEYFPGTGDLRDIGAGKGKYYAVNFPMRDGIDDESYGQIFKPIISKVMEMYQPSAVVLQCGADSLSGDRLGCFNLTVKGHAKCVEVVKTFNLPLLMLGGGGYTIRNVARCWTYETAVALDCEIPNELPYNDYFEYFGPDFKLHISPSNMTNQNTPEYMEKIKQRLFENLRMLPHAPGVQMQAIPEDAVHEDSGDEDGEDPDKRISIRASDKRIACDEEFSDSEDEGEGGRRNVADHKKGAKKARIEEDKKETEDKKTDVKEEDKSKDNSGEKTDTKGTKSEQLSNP

On to `O=C(O)c1ccc(COc2ccc(O)cc2)cc1` [Compound (17)], for which the inhibition at 10 µM on HDAC-1 was determined as 12 ± 0.7%; on HDAC-2 it was 11 ± 0.5%.
For `Nc1ccccc1NC(=O)c1ccc(CNc2ccccc2)cc1` [Compound (21)], the inhibition at 10 µM against HDAC-1 came out at 96 ± 1.3%; at HDAC-2, 93 ± 1.2%.
Consider `O=C(O)c1ccc(COc2ccccc2)cc1` [Compound (15)], for which the inhibition at 10 µM came out at 16 ± 0.6% at HDAC-1 and 11% against HDAC-2. The HDAC-2 inhibition on HDAC-2 (10 µM) is on record as 10 ± 0.5%.
In the case of `Nc1ccc(/C=C/c2ccc(C(=O)Nc3ccccc3N)cc2)cc1` [Compound (4)], the inhibition at 10 µM at HDAC-1 turned out to be 45 ± 1.2%; against HDAC-2, 28 ± 1%.
As for `Nc1ccccc1NC(=O)c1ccc(COc2ccc(N3C(=O)c4cccc([N+](=O)[O-])c4C3=O)cc2)cc1` [Compound (26)], the inhibition at 10 µM on HDAC-1 is 1 ± 0.5%; against HDAC-2 it was 6 ± 0.6%.
The molecule `Nc1ccccc1NC(=O)c1ccc(/C=C/c2ccccc2)cc1` [Compound (7)] showed a melting point of 177 to 179 °C. The same molecule gave an inhibition at 10 µM at HDAC-1 of 42 ± 0.7%. Moreover, the inhibition at 10 µM against HDAC-2 was found to be 32 ± 0.7%.
In the case of `Nc1ccccc1NC(=O)c1ccc(COc2ccc(O)cc2)cc1` [Compound (22)], the inhibition at 10 µM came out at 96 ± 1.2% on HDAC-1 and 92 ± 0.7% against HDAC-2.
Turning to `Oc1ccc(/C=C/c2cc(O)cc(O)c2)cc1` [Resveratrol (RVT), trans-3,5,4′-trihydroxystilbene], in the data set on HDAC isoforms, the “inhibition of HDAC-1 and HDAC-10” value is on record as 40%; the “inhibition of HDAC-4 and HDAC-9” value was 50%. In addition, in the data set with SIRT1, the “deacetylation rate of SIRT1” value was “increased”.
Take `O=C(O)c1ccc(/C=C/c2ccccc2)cc1` [(6)]: the inhibition at 10 µM amounted to 9 ± 1% on HDAC-1 and 0% against HDAC-2.
Turning to `Nc1ccccc1NC(=O)c1ccc(COc2ccc(N3C(=O)c4ccccc4C3=O)cc2)cc1` [Compound (25)], the figures for the inhibition at 10 µM on HDAC-1 and on HDAC-2 were 14 ± 0.5% and 21 ± 0.8%, respectively.
The matching figures for `Nc1ccc(OCc2ccc(C(=O)Nc3ccccc3N)cc2)cc1` [Compound (23)]: 72 ± 1.1% and 52 ± 0.8%.
Molecule `NC(=O)c1ccccc1OCc1ccc(C(=O)O)cc1` [Compound (19)] displayed a melting point of 196.5 to 198.6 °C. The molecule also yielded an inhibition at 10 µM at HDAC-1 of 13 ± 0.9%. Besides, the inhibition at 10 µM at HDAC-2 is 8 ± 0.6%.
The matching figures for `NC(=O)c1ccccc1OCc1ccc(C(=O)Nc2ccccc2N)cc1` [Compound (24)]: 162 to 163.7 °C, 86 ± 1% and 81 ± 1.1%.
For the molecule `Nc1ccccc1NC(=O)c1ccc(COc2ccccc2)cc1` [Compound (20)], the figures for the inhibition at 10 µM on HDAC-1 and on HDAC-2 were 87 ± 1.1% and 85 ± 1.1%, respectively.

In general, inhibition refers to how much of the control response was suppressed. A higher inhibition goes with strong suppression. As usually defined, the melting point is the temperature, or range, at which the solid turns liquid.
